The values that follow come from ChEMBL document CHEMBL5608241, “Discovery of Novel Non-nucleoside DOT1LR231Q Inhibitors with Improved Pharmacokinetic Properties and Anti-lung Cancer Efficacy” (J Med Chem, 2024).

One data set has as its system NCI-H460. The data set is described as follows: Inhibition of DOT1L R231Q mutant (unknown origin) (1 to 416 residues) exogenously expressed in human NCI-H460 cells assessed as reduction in H3K79me2 level at 5 uM by Western blot analysis relative to control. In kind it is cell-based.
A short description of data set [1]: Tmax in male Sprague-Dawley rat at 20 mg/kg, iv measured after 24 hrs by LC-MS/MS analysis. To be noted: in vivo. In kind it is ADME, organism-based.

Molecules are shown by their SMILES.

As a reminder, the inhibition is the drop in the measured response relative to a control, in per cent. A word on the Tmax: it is the time at which the peak concentration occurs. `CC(C)(C)c1ccc(NC(=O)NCCCN(CCCN2CCOCC2)CC2(O)CCN(c3nc(Cl)nc4sccc34)C2)cc1` (configuration not stated): the inhibition in the data set on NCI-H460 is more than 50%. Moreover, the Tmax in data set [1] turned out to be 4.98 min.
